This is an account of results in patent US20170022260A9 (Sanofi, priority 2013, published 2017).

In brackets after ≈: the same amount, converted by molar mass.

A short description of one data set: physchem. The format is physicochemical. How it is done: Prior to the testing of solubility and stability of a peptide batch, its content was determined Therefore, two parameters were investigated, its purity (HPLC-UV) and the amount of salt load of the batch (ion chromatography).
. Therefore, solutions from solid samples were prepared in different buffer systems with a concentration of 1.0 mg/mL compound based on the previously determined content. HPLC-UV was performed after 2 h of gentle agitation from the supernatant, which was obtained by 20 min of centrifugation at 4000 rpm.
This analysis also served as starting point (t0) for the stability testing.
As HPLC/UPLC method, method D or E has been used.

In data set [1] the test system is Female diabetic dbdb-mice. Briefly: Glucose lowering in female diabetic dbdb-mice. It is filed as in vivo. As to conditions: 100 μg/kg s.c. How it is done:
Female diabetic dbdb-mice (BKS.Cg-+Leprdb/+Leprdb/OlaHsd) 10 weeks of age at study start were used. Mice were habituated to feeding and housing conditions for at least 2 weeks. 7 days prior to study start, HbA1c were determined to allocate mice to groups, aiming to spread low, medium and high HbA1c-values and in consequence the group-means (n=8), as equally as possible. On the day of study, food was removed, directly before sampling for baseline glucose assessment (t=0 min) Immediately afterwards, compounds or vehicle (phosphor buffered saline, PBS) were administered subcutaneously, 100 μg/kg, 10 ml/kg. Afterwards, blood samples were drawn by tail tip incision at 15, 30, 60, 90, 120, 150, 180, 240, 360, 480 min and 24 h. Food was re-offered after the 480 min-sampling.
Data were analysed by 2-W-ANOVA on repeated measurements, followed by Dunnett's test as post-hoc assessment, level of significance p<0.05.

A word on the solubility: it is how much of the substance goes into solution per volume. A high value points to much dissolved substance. On to `CC[C@H](C)[C@H](NC(=O)[C@H](CC(C)C)NC(=O)[C@H](Cc1c[nH]c2ccccc12)NC(=O)[C@H](CCC(=O)O)NC(=O)[C@@H](NC(=O)[C@H](Cc1ccccc1)NC(=O)[C@H](CCC(=O)O)NC(=O)[C@H](CCCCN)NC(=O)[C@H](C)NC(=O)[C@H](CCCNC(=N)N)NC(=O)[C@H](CCC(N)=O)NC(=O)[C@H](CCC(=O)O)NC(=O)[C@H](CC(=O)O)NC(=O)[C@H](CC(C)C)NC(=O)[C@H](CCC(N)=O)NC(=O)[C@H](CCCCN)NC(=O)[C@H](CO)NC(=O)[C@H](CC(C)C)NC(=O)[C@H](CC(=O)O)NC(=O)[C@H](CO)NC(=O)[C@@H](NC(=O)[C@H](Cc1ccccc1)NC(=O)[C@@H](NC(=O)CNC(=O)[C@H](CCC(N)=O)NC(=O)[C@H](CO)NC(=O)[C@@H](N)Cc1c[nH]cn1)[C@@H](C)O)[C@@H](C)O)[C@@H](C)CC)C(=O)N[C@@H](C)C(=O)NCC(=O)NCC(=O)N1CCC[C@H]1C(=O)N[C@H](C(=O)N[C@@H](CO)C(=O)NCC(=O)N[C@@H](C)C(=O)N1CCC[C@H]1C(=O)N1CCC[C@H]1C(=O)N1CCC[C@H]1C(=O)N[C@@H](CO)C(N)=O)C(C)C` [SEQ ID NO: 6, HSQGTFTSDLSKQLDEQRAKEFIEWLIAGGPVSGAPPPS-NH2], for which the solubility at 2 h is 934 µg/mL (≈ 223 µM) in “physchem” (pH 4.5, solubility pH 4.5) and greater than 1000 µg/mL in the data set “physchem” (pH 7.4, solubility pH 7.4).
Turning to “H-Aib-HGTFTSDLSKQLDEQRAKDFIEWLIAGGPSSGAPPPS-NH2 [SEQ ID NO: 10]”, the “reduction of glucose compared to vehicle control, statistical significance” value in data set [1] (female db/db-mice, p<0.05, 2-way-ANOVA, Dunnett's post-hoc test) is “statistical significant reduction of glucose compared to vehicle control from t=60 min until 240 min”. In addition, the “maximal effect, glucose reduction” value in data set [1] (non-fasted female db/db-mice, change from baseline (baseline on average 28 mmol/l)) is roughly 12 mmol/1.
